Experimental data: patent EP4230622A1, “NERVE DAMAGE PREVENTING AND NERVE PROTECTING COMPOUNDS, PREPARATION METHOD THEREOF, PHARMACEUTICAL COMPOSITION THEREOF, AND THEIR USE” (Genhealth Pharma Co., Ltd., priority 2022, dated 2023)

Columns and labels:
[1] = tested on: male Sprague Dawley rat (SD rat); test: Evaluation of the effect of preventing nerve damage: transient focal MCAO/R model, infarct volume by TTC staining; assay type: in vivo; conditions: 50 mg/kg intraperitoneal injection once 10 minutes before, 1 hour ischemia, 24 hours blood reperfusion, sum of seven brain slices, 5 SD rats
Experimental: The specific solvent was made of dimethyl sulfoxide (DMSO), cremophor EL (CrEL) and water, with the relative volume ratio of 10:20:70, respectively. Besides the foresaid experimental groups, only pure solvent used was treated as vehicle group, and a sham group, which was not administrated with any compound or solvent or with nylon monofilament to cause obstruction and ischemia, was also included.
In this test example, transient focal Middle Cerebral Artery Occlusion/ Reperfusion model (MCAO/R model) was adopted to simulate ischemic stroke for evaluating the subsequent nerve damage. Specifically, male Sprague Dawley rat (SD rat) was adopted and anaesthetized with 2% isoflurane, and then the right common carotid artery, external carotid artery and internal carotid artery were distinguished among them from the neck.
Next, a nylon monofilament with length of 22 millimeters (mm), size number of 4/0 and capped with polysiloxane was inserted into the external carotid artery and along with the […] of Willis to induce obstruction and ischemia in the middle cerebral artery. After causing obstruction and ischemia for 1 hour, the nylon monofilament was removed to allow the blood recirculated to the brain, in other words, to undergo blood reperfusion.
After blood reperfusion for 24 hours, the rat was sacrificed and the brain thereof was placed into a cooled 0.95% saline. Then, 1 mm part of the brain tip was excised, and the rest of the brain was cut in coronal section to obtain seven slices of brain tissue with each thickness of 2 mm. Next, those sliced brain tissues were infiltrated with 1% 2,3,5-triphenyltetrazolium chloride (TTC) for 30-minute at room temperature (about 25°C to 27°C). Afterward, the sliced brain tissues were […] with a 4% […] solution, and then MacroPATH Digital Imaging System was used to record the images and the obtained images were analyzed by ImageJ 1.52a to count the infarct volume percent, which could represent the degree of nerve damage. The foresaid infarct volume percent was obtained by adding the values acquired by multiplying the proportion of infarct area of each sliced brain tissue with their thickness, and the proportion of infarct area was calculated by the equation: (B-A)/B×100%; wherein, "A" represented the undamaged area in the damaged cerebral hemisphere on the right side, and "B" represented the total area of the undamaged cerebral hemisphere on the left side.
Here, 10 minutes before processing the foresaid MCAO/R model, the rats were administrated with the test samples of Examples 1 to 15 by intraperitoneal injection for one time. The administration amount was 50 milligrams per kilogram (mg/kg) or 5 ml/kg. The actual applied amount was depended on the weight of the rates. The treatment for the vehicle group was the same as that of the experimental group except only solvent was used.
The results of TTC staining of the seven sliced brain tissues of the groups of Examples 1 to 15, the vehicle group and the sham group were shown in FIG. 2. 5 SD rats were used for each experimental groups of Examples 1 to 15 and the vehicle group, while only 3 SD rats were used for the sham group. Table 2: The total infarct volume percent of Examples 1 to 15, the vehicle group, and the sham group.

[2] = tested on: male Sprague Dawley rat (SD rat); test: Neurobehavioral evaluation (Bederson classification) after MCAO/R; conditions: Bederson grade 0 to 4, 50 mg/kg intraperitoneal before MCAO/R

## COc1cc(C(=O)NCCCC(=O)O)c(OC)c2c1OCO2 [Example 7]
[1]
  Total infarct volume percent (%): 15.17%
[2]
  Grade, Time point of 0.5-hour after blood reperfusion: 2.60
  Grade, Time point of 1.5-hour after blood reperfusion: 2.40
[2]; 50 mg/kg
  Grade, Time point of 24-hour after blood reperfusion: 1.60

## COc1ccc(C[C@@H](C)NC(=O)c2cc(OC)c3c(c2OC)OCO3)cc1S(N)(=O)=O [Example 6]
[1]
  Total infarct volume percent (%): 19.67%
[2]
  Grade, Time point of 0.5-hour after blood reperfusion: 2.60
  Grade, Time point of 1.5-hour after blood reperfusion: 2.40
  Grade, Time point of 24-hour after blood reperfusion: 2.20

## COc1cc(C(=O)Nc2sc(C)cc2C#N)c(OC)c2c1OCO2 [Example 14]
[1]
  Total infarct volume percent (%): 34.77%

## COc1cc(C(=O)Nc2ccc(O)cc2)c(OC)c2c1OCO2 [Example 9]
[1]
  Total infarct volume percent (%): 14.52%
[2]
  Grade, Time point of 0.5-hour after blood reperfusion: 2.80
  Grade, Time point of 1.5-hour after blood reperfusion: 2.40
[2]; 50 mg/kg
  Grade, Time point of 24-hour after blood reperfusion: 1.40

## CCOC(=O)c1ccc(NC(=O)c2cc(OC)c3c(c2OC)OCO3)cc1 [Example 15]
[1]
  Total infarct volume percent (%): 17.76%
[2]
  Grade, Time point of 0.5-hour after blood reperfusion: 2.80
  Grade, Time point of 1.5-hour after blood reperfusion: 2.60
  Grade, Time point of 24-hour after blood reperfusion: 2.00

## COc1cc(C(=O)Nc2c(C)n(C)n(-c3ccccc3)c2=O)c(OC)c2c1OCO2 [Example 13]
[1]
  Total infarct volume percent (%): 32.53%

## COc1cc(C(=O)NCCC(=O)O)c(OC)c2c1OCO2 [Example 10]
[1]
  Total infarct volume percent (%): 21.76%
[2]
  Grade, Time point of 0.5-hour after blood reperfusion: 2.60
  Grade, Time point of 1.5-hour after blood reperfusion: 2.40
  Grade, Time point of 24-hour after blood reperfusion: 2.20

## COc1cc(C(=O)OCc2ccccc2)c(OC)c2c1OCO2 [Example 12]
[1]
  Total infarct volume percent (%): 35.67%

## COc1cc(C(=O)N[C@@H](C)C(=O)O)c(OC)c2c1OCO2 [Example 11]
[1]
  Total infarct volume percent (%): 15.93%
[2]
  Grade, Time point of 0.5-hour after blood reperfusion: 2.80
  Grade, Time point of 1.5-hour after blood reperfusion: 2.00
[2]; 50 mg/kg
  Grade, Time point of 24-hour after blood reperfusion: 1.60

## CCCCc1c(C)c(OC)c2c(c1OC)OCO2 [Example 2]
[1]
  Total infarct volume percent (%): 30.75%

## COc1cc(CNC(C)=O)c(OC)c2c1OCO2 [Example 5]
[1]
  Total infarct volume percent (%): 20.2%
[2]
  Grade, Time point of 0.5-hour after blood reperfusion: 2.40
  Grade, Time point of 1.5-hour after blood reperfusion: 2.40
  Grade, Time point of 24-hour after blood reperfusion: 2.40

## COc1cc(C(=O)NCCc2ccc(O)c(O)c2)c(OC)c2c1OCO2 [Example 8]
[1]
  Total infarct volume percent (%): 22.39%
[2]
  Grade, Time point of 0.5-hour after blood reperfusion: 2.40
  Grade, Time point of 1.5-hour after blood reperfusion: 2.60
  Grade, Time point of 24-hour after blood reperfusion: 2.00
